From PubChem BioAssay (NCI)
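Method: 48-hour compound exposure of cells in 96-well plates, five concentrations, linear interpolation of endpoints. The concentration for full growth arrest is given as TGI.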

Assays:
Experiment in all cases: NCI-60 cell line screen, 48 h
EKVX NSCLC = tested on: EKVX NSCLC
SK-MEL-2 melanoma = tested on: SK-MEL-2 melanoma
KM12 colon = tested on: KM12 colon
M14 melanoma = tested on: M14 melanoma
OVCAR-4 ovarian = tested on: OVCAR-4 ovarian
ACHN renal = tested on: ACHN renal
RXF 393 renal = tested on: RXF 393 renal
HCC-2998 colon = tested on: HCC-2998 colon
CCRF-CEM leukemia = tested on: CCRF-CEM leukemia
NCI-H522 lung = tested on: NCI-H522 lung
SK-MEL-28 melanoma = tested on: SK-MEL-28 melanoma
HS 578T breast = tested on: HS 578T breast
HOP-62 NSCLC = tested on: HOP-62 NSCLC
HL-60(TB) leukemia = tested on: HL-60(TB) leukemia
NCI-H23 lung = tested on: NCI-H23 lung
SNB-75 CNS = tested on: SNB-75 CNS
SF-268 CNS = tested on: SF-268 CNS
U251 CNS = tested on: U251 CNS
HCT-15 colon = tested on: HCT-15 colon
SK-MEL-5 melanoma = tested on: SK-MEL-5 melanoma

Work on `COC(=O)/C=C\Sc1ccn(/C=C\C(=O)OC)c(=S)n1` yielded a TGI (EKVX NSCLC) of 68.2 µM, a TGI (SK-MEL-2 melanoma) of 46.9 µM and a TGI (KM12 colon) of 42.8 µM. For the same molecule, the TGI (M14 melanoma) was > 100 µM, the TGI (OVCAR-4 ovarian) was 35.3 µM and the TGI (ACHN renal) was 32.2 µM. The TGI (RXF 393 renal) was 23.3 µM, the TGI (HCC-2998 colon) was > 100 µM and the TGI (CCRF-CEM leukemia) was > 100 µM. The TGI (NCI-H522 lung) was 31.4 µM, the TGI (SK-MEL-28 melanoma) was > 100 µM and the TGI (HS 578T breast) was 78.9 µM. The TGI (HOP-62 NSCLC) was 32.4 µM, the TGI (HL-60(TB) leukemia) was > 100 µM and the TGI (NCI-H23 lung) was 64.3 µM. The TGI (SNB-75 CNS) was 43.1 µM, the TGI (SF-268 CNS) was 65.9 µM and the TGI (U251 CNS) was 39.9 µM. For the same molecule, the TGI (HCT-15 colon) was 42.6 µM and the TGI (SK-MEL-5 melanoma) was 80.6 µM.

`CC1(C)OP23(NC(=O)OC2(C(F)(F)F)c2ccccc2O3)OC1(C)C` (stereo unspecified) was tested, and the TGI (SK-MEL-2 melanoma) was > 100 µM, the TGI (KM12 colon) was > 100 µM and the TGI (M14 melanoma) was > 100 µM. The TGI (OVCAR-4 ovarian) was > 100 µM, the TGI (ACHN renal) was > 100 µM and the TGI (RXF 393 renal) was > 100 µM. The TGI (CCRF-CEM leukemia) was > 100 µM, the TGI (NCI-H522 lung) was > 100 µM and the TGI (SK-MEL-28 melanoma) was > 100 µM. For the same molecule, the TGI (HL-60(TB) leukemia) was > 100 µM, the TGI (NCI-H23 lung) was > 100 µM and the TGI (SNB-75 CNS) was > 100 µM. The TGI (SF-268 CNS) was > 100 µM, the TGI (U251 CNS) was > 100 µM and the TGI (HCT-15 colon) was > 100 µM. The TGI (SK-MEL-5 melanoma) was > 100 µM.

For `O=C(CCCn1cnc([N+](=O)[O-])n1)NCCn1ccnc1[N+](=O)[O-]`, the TGI (EKVX NSCLC) was > 100 µM, the TGI (SK-MEL-2 melanoma) was > 100 µM and the TGI (KM12 colon) was > 100 µM. For the same molecule, the TGI (M14 melanoma) was > 100 µM, the TGI (OVCAR-4 ovarian) was > 100 µM and the TGI (ACHN renal) was > 100 µM. The TGI (RXF 393 renal) was > 100 µM, the TGI (CCRF-CEM leukemia) was > 100 µM and the TGI (NCI-H522 lung) was > 100 µM. The TGI (SK-MEL-28 melanoma) was > 100 µM, the TGI (HS 578T breast) was > 100 µM and the TGI (HOP-62 NSCLC) was > 100 µM. For the same molecule, the TGI (HL-60(TB) leukemia) was > 100 µM, the TGI (NCI-H23 lung) was > 100 µM and the TGI (SNB-75 CNS) was > 100 µM. For the same molecule, the TGI (SF-268 CNS) was > 100 µM, the TGI (U251 CNS) was > 100 µM and the TGI (HCT-15 colon) was > 100 µM. For the same molecule, the TGI (SK-MEL-5 melanoma) was > 100 µM.

In the case of `CN(C)c1ccc(N2C(=S)SC(=Nc3ccccc3)C2=Nc2ccccc2)cc1`, the TGI (SK-MEL-2 melanoma) is reported as > 100 µM, the TGI (KM12 colon) is reported as > 100 µM and the TGI (M14 melanoma) is reported as > 100 µM. For the same molecule, the TGI (OVCAR-4 ovarian) was > 100 µM, the TGI (RXF 393 renal) was > 100 µM and the TGI (HCC-2998 colon) was > 100 µM. The TGI (CCRF-CEM leukemia) was > 100 µM, the TGI (NCI-H522 lung) was > 100 µM and the TGI (SK-MEL-28 melanoma) was > 100 µM. The TGI (HS 578T breast) was > 100 µM, the TGI (HOP-62 NSCLC) was > 100 µM and the TGI (HL-60(TB) leukemia) was > 100 µM. For the same molecule, the TGI (NCI-H23 lung) was > 100 µM, the TGI (SNB-75 CNS) was > 100 µM and the TGI (U251 CNS) was > 100 µM. For the same molecule, the TGI (HCT-15 colon) was > 100 µM and the TGI (SK-MEL-5 melanoma) was > 100 µM.

With `O=C(Nc1ccccc1F)c1c(O)nc2sccn2c1=O` the TGI (EKVX NSCLC) was > 10 µM, the TGI (SK-MEL-2 melanoma) was > 10 µM and the TGI (KM12 colon) was > 10 µM. For the same molecule, the TGI (M14 melanoma) was > 10 µM, the TGI (OVCAR-4 ovarian) was > 10 µM and the TGI (ACHN renal) was > 10 µM. For the same molecule, the TGI (RXF 393 renal) was > 10 µM, the TGI (HCC-2998 colon) was > 10 µM and the TGI (CCRF-CEM leukemia) was > 10 µM. The TGI (NCI-H522 lung) was > 10 µM, the TGI (SK-MEL-28 melanoma) was > 10 µM and the TGI (HS 578T breast) was > 10 µM. The TGI (HOP-62 NSCLC) was > 10 µM, the TGI (HL-60(TB) leukemia) was > 10 µM and the TGI (NCI-H23 lung) was > 10 µM. The TGI (SNB-75 CNS) was > 10 µM, the TGI (SF-268 CNS) was > 10 µM and the TGI (U251 CNS) was > 10 µM. For the same molecule, the TGI (HCT-15 colon) was > 10 µM and the TGI (SK-MEL-5 melanoma) was > 10 µM.

Work on `COc1ccc2[nH]c(C(=O)N3CC(CCl)c4ccc(N)cc43)cc2c1` (stereo unspecified) yielded a TGI (EKVX NSCLC) of 2.78 µM, a TGI (SK-MEL-2 melanoma) of 0.396 µM and a TGI (KM12 colon) of 0.406 µM. The TGI (M14 melanoma) was 0.319 µM, the TGI (OVCAR-4 ovarian) was 0.609 µM and the TGI (ACHN renal) was 0.375 µM. It also gave a TGI (RXF 393 renal) of 0.251 µM, a TGI (HCC-2998 colon) of 0.383 µM and a TGI (CCRF-CEM leukemia) of 1.44 µM. For the same molecule, the TGI (NCI-H522 lung) was 0.0882 µM, the TGI (SK-MEL-28 melanoma) was > 31.6 µM and the TGI (HS 578T breast) was 1.32 µM. For the same molecule, the TGI (HOP-62 NSCLC) was > 100 µM, the TGI (HL-60(TB) leukemia) was 0.631 µM and the TGI (NCI-H23 lung) was 0.501 µM. For the same molecule, the TGI (SNB-75 CNS) was 0.475 µM, the TGI (U251 CNS) was > 31.6 µM and the TGI (HCT-15 colon) was > 50.4 µM. The TGI (SK-MEL-5 melanoma) was 0.195 µM.
